Results: patent US10597388B2, “Pyridazinone herbicides” (FMC CORPORATION, priority 2014, dated 2020)

Tests used:
Type in all cases: in vivo
[1] = tested on: ducksalad (Heteranthera limosa); assay: Test B flooded paddy test; settings: 250 g ai/ha, Flood; visual rating on scale of 0 to 100 where 0 is no effect and 100 is complete control; 13 to 15 d after treatment
Outline: (§1)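 Ratings use a 0-100 visual scale, where 100 is complete control, and compare treated plants with controls after 13 to 15 d of greenhouse growth. Compound went straight into paddy water kept 3 cm over the soil surface, applied to seedlings at the 2-leaf stage.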

[2] = tested on: rice (Oryza sativa); assay: Test B flooded paddy test; settings: 250 g ai/ha, Flood; visual rating on scale of 0 to 100 where 0 is no effect and 100 is complete control; 13 to 15 d after treatment
Outline: as §1

[3] = tested on: barnyardgrass (Echinochloa crus-galli); assay: Test B flooded paddy test; settings: 250 g ai/ha, Flood; visual rating on scale of 0 to 100 where 0 is no effect and 100 is complete control; 13 to 15 d after treatment
Outline: as §1

[4] = tested on: sedge, umbrella (small-flower umbrella sedge, Cyperus difformis); assay: Test B flooded paddy test; settings: 250 g ai/ha, Flood; visual rating on scale of 0 to 100 where 0 is no effect and 100 is complete control; 13 to 15 d after treatment
Outline: as §1

[5] = tested on: ryegrass, Italian (Italian ryegrass, Lolium multiflorum); assay: Test A greenhouse herbicide test, pre- and postemergence
Outline: (§2)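 Visual injury ratings, 0 (no effect) to 100 (complete control), versus untreated plants after roughly 10 d in a greenhouse. Compounds, formulated in a surfactant-containing non-phytotoxic solvent, were sprayed on loam–sand soil after sowing (pre) or on one- to two-leaf plants 2–10 cm tall (post).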

[6] = tested on: pigweed (Amaranthus retroflexus); assay: as above
Outline: as §2

[7] = tested on: barnyardgrass (Echinochloa crus-galli); assay: as above
Outline: as §2

[8] = tested on: wheat (Triticum aestivum); assay: as above; settings: Postemergence; for Wheat plant response rating: 0 to 100 scale, 0 is no effect, 100 is complete control
Outline: as §2

[9] = tested on: kochia (Kochia scoparia); assay: as above
Outline: as §2

[10] = tested on: foxtail, giant (giant foxtail, Setaria faberii); assay: as above
Outline: as §2

[11] = tested on: corn (Zea mays); assay: as above; settings: Postemergence; for Corn plant response rating: 0 to 100 scale, 0 is no effect, 100 is complete control
Outline: as §2

[12] = tested on: ragweed (common ragweed, Ambrosia elatior); assay: as above
Outline: as §2

[13] = tested on: galium (catchweed bedstraw, Galium aparine); assay: Test A greenhouse herbicide test, postemergence; settings: for Galium plant response rating: 0 to 100 scale, 0 is no effect, 100 is complete control
Outline: (§3)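 Seedlings in a loam soil and sand mix received formulated compound postemergence at the one- to two-leaf stage. Greenhouse holding lasts approximately 10 d, then injury is scored visually relative to untreated plants, 0 meaning no effect and 100 complete control.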

[14] = tested on: blackgrass (Alopecurus myosuroides); assay: Test A greenhouse herbicide test, postemergence; settings: for Blackgrass plant response rating: 0 to 100 scale, 0 is no effect, 100 is complete control
Outline: as §3

[15] = Postemergence, 1000 g ai/ha, 0 to 100 scale, 0 is no effect, 100 is complete control
[16] = Preemergence, 1000 g ai/ha, 0 to 100 scale, 0 no effect, 100 complete control
[17] = Postemergence, 125 g ai/ha, 0 to 100 scale where 0 is no effect and 100 is complete control
[18] = Postemergence, 500 g ai/ha, 0 to 100 scale, 0 is no effect, 100 is complete control
[19] = Preemergence, 125 g ai/ha, 0 to 100 scale where 0 is no effect and 100 is complete control
[20] = Preemergence, 500 g ai/ha, 0 to 100 scale, 0 no effect, 100 complete control
[21] = 125 g ai/ha, 0 to 100 scale where 0 is no effect and 100 is complete control
[22] = Postemergence, 500 g ai/ha, visual rating after approx. 10 d, 0 to 100 scale (0 no effect, 100 complete control)
[23] = Preemergence, 500 g ai/ha, 0 to 100 scale where 0 is no effect and 100 is complete control
[24] = 500 g ai/ha, visual rating after approx. 10 d, 0 to 100 scale (0 no effect, 100 complete control)

Structure (SMILES): Cc1nn(C)c(=O)c(-c2cccc3ccccc23)c1OCC(=O)C1CC1 [Compound 181]
- Plant response rating, Ducksalad [1]: 0
- Plant response rating, Rice [2]: 0
- Plant response rating, Barnyardgrass [3]: 0
- Plant response rating, Sedge, Umbrella [4]: 0
- Ryegrass, Italian plant response rating [5, 15]: 80
- Plant response rating, Ryegrass, Italian [5, 16]: 60
- Pigweed plant response rating [6, 15]: 30
- Plant response rating, Pigweed [6, 16]: 30
- Barnyardgrass plant response rating [7, 15]: 0
- Plant response rating, Barnyardgrass [7, 16]: 0
- Wheat plant response rating ([8]; 1000 g ai/ha): 0
- Kochia plant response rating [9, 15]: 0
- Plant response rating, Kochia [9, 16]: 10
- Foxtail, Giant plant response rating [10, 15]: 0
- Plant response rating, Foxtail, Giant [10, 16]: 0
- Corn plant response rating ([11]; 1000 g ai/ha): 0
- Ragweed plant response rating [12, 15]: 30
- Plant response rating, Ragweed [12, 16]: 10
- Galium plant response rating ([13]; 1000 g ai/ha): 80
- Blackgrass plant response rating ([14]; 1000 g ai/ha): 20

Structure (SMILES): COc1ccc(-c2c(O)c(C)nn(C)c2=O)c2ccccc12 [Compound 58]
- Plant response rating, Ducksalad [1]: 0
- Plant response rating, Rice [2]: 0
- Plant response rating, Barnyardgrass [3]: 0
- Plant response rating, Sedge, Umbrella [4]: 0
- Plant response rating, Ryegrass, Italian [5, 17]: 60
- Ryegrass, Italian plant response rating [5, 18]: 80
- Ryegrass, Italian plant response rating [5, 19]: 70
- Plant response rating, Ryegrass, Italian [5, 20]: 100
- Plant response rating, Pigweed [6, 17]: 0
- Pigweed plant response rating [6, 18]: 20
- Pigweed plant response rating [6, 19]: 0
- Plant response rating, Pigweed [6, 20]: 20
- Plant response rating, Barnyardgrass [7, 17]: 0
- Barnyardgrass plant response rating [7, 18]: 0
- Barnyardgrass plant response rating [7, 19]: 0
- Plant response rating, Barnyardgrass [7, 20]: 20
- Plant response rating, Wheat [8, 21]: 0
- Wheat plant response rating ([8]; 500 g ai/ha): 20
- Plant response rating, Kochia [9, 17]: 20
- Kochia plant response rating [9, 18]: 90
- Kochia plant response rating [9, 19]: 20
- Plant response rating, Kochia [9, 20]: 80
- Plant response rating, Foxtail, Giant [10, 17]: 0
- Foxtail, Giant plant response rating [10, 18]: 10
- Foxtail, Giant plant response rating [10, 19]: 0
- Plant response rating, Foxtail, Giant [10, 20]: 0
- Plant response rating, Corn [11, 21]: 0
- Corn plant response rating ([11]; 500 g ai/ha): 0
- Plant response rating, Ragweed [12, 17]: 0
- Ragweed plant response rating [12, 18]: 60
- Ragweed plant response rating [12, 19]: 70
- Plant response rating, Ragweed [12, 20]: 80
- Plant response rating, Galium [13, 21]: 70
- Galium plant response rating ([13]; 500 g ai/ha): 100
- Plant response rating, Blackgrass [14, 21]: 20
- Blackgrass plant response rating ([14]; 500 g ai/ha): 50

Structure (SMILES): COc1nn(C)c(=O)c(-c2c(C)sc3ccc(Cl)cc23)c1OC(C)=O [Compound 122]
- Plant response rating, Ducksalad [1]: 0
- Plant response rating, Rice [2]: 0
- Plant response rating, Barnyardgrass [3]: 0
- Plant response rating, Sedge, Umbrella [4]: 0
- Plant response rating, Ryegrass, Italian [5, 17]: 50
- Plant response rating, Ryegrass, Italian [5, 22]: 70
- Ryegrass, Italian plant response rating [5, 19]: 70
- Plant response rating, Ryegrass, Italian [5, 23]: 90
- Plant response rating, Pigweed [6, 17]: 30
- Plant response rating, Pigweed [6, 22]: 70
- Pigweed plant response rating [6, 19]: 100
- Plant response rating, Pigweed [6, 23]: 100
- Plant response rating, Barnyardgrass [7, 17]: 20
- Plant response rating, Barnyardgrass [7, 22]: 30
- Barnyardgrass plant response rating [7, 19]: 0
- Plant response rating, Barnyardgrass [7, 23]: 30
- Plant response rating, Wheat [8, 21]: 0
- Plant response rating, Wheat [8, 24]: 0
- Plant response rating, Kochia [9, 17]: 40
- Plant response rating, Kochia [9, 22]: 70
- Kochia plant response rating [9, 19]: 30
- Plant response rating, Kochia [9, 23]: 70
- Plant response rating, Foxtail, Giant [10, 17]: 40
- Plant response rating, Foxtail, Giant [10, 22]: 60
- Foxtail, Giant plant response rating [10, 19]: 30
- Plant response rating, Foxtail, Giant [10, 23]: 70
- Plant response rating, Corn [11, 21]: 0
- Plant response rating, Corn [11, 24]: 20
- Plant response rating, Ragweed [12, 17]: 50
- Plant response rating, Ragweed [12, 22]: 60
- Plant response rating, Ragweed [12, 23]: 80
- Plant response rating, Galium [13, 21]: 60
- Plant response rating, Galium [13, 24]: 70
- Plant response rating, Blackgrass [14, 21]: 30
- Plant response rating, Blackgrass [14, 24]: 40
